{"source": "patent US12698507B2", "about": "“Methods and compositions for conferring and/or enhancing herbicide tolerance using protoporphyrinogen IX oxidase of various cyanobacteria or variant thereof” (FarmHannong Co., Ltd., priority 2019, dated 2026)", "key": {"[1]": {"target": "Thermosynechococcus vulcanus NIES-2134 protoporphyrinogen IX oxidase CyPPO18 (SEQ ID NO: 3) variant R89A (MBP fusion) (Thermosynechococcus vestitus, UniProt Q8DLV2, R89A)", "sequence (Q8DLV2 entry or part of it R89A)": "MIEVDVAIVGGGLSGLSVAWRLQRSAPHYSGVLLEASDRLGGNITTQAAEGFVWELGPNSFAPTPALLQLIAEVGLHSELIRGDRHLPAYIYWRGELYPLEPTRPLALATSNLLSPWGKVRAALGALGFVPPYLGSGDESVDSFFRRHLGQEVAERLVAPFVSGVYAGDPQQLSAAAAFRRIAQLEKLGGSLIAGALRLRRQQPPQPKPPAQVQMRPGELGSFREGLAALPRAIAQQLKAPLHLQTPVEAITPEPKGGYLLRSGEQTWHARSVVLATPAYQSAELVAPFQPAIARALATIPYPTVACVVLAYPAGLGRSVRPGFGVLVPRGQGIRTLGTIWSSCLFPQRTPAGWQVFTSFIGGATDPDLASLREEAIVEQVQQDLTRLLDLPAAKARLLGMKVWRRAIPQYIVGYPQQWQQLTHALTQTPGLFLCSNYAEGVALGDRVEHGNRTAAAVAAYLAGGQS", "assay": "PPO enzyme inhibition assay (IC50 for herbicides), CyPPO18 R89A fused to MBP", "assay_type": "biochemical", "settings": "50 μM protoporphyrinogen IX, pH 7.5, room temperature, 30 min"}, "[2]": {"target": "Thermosynechococcus elongatus PKUAC-SCTE542 protoporphyrinogen IX oxidase CyPPO19 (SEQ ID NO: 1) variant V305L (MBP fusion) (Thermosynechococcus sichuanensis, UniProt A0A7D6JSC1, V305L)", "sequence (A0A7D6JSC1 entry or part of it V305L)": "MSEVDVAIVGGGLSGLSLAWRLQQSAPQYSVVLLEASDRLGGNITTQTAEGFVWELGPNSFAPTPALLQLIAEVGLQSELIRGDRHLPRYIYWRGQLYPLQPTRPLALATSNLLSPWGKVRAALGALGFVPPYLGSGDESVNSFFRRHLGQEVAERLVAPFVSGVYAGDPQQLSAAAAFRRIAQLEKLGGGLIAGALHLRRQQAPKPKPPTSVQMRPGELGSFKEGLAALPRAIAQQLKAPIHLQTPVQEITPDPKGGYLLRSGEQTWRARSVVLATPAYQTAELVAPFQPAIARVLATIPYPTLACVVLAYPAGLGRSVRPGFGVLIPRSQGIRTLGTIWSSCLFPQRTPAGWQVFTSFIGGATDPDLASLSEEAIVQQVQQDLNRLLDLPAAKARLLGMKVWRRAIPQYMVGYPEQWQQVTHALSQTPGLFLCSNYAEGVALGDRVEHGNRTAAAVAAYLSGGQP", "assay": "PPO enzyme inhibition assay (IC50 for herbicides), CyPPO19 V305L fused to MBP", "assay_type": "biochemical"}, "[3]": {"test_system": "PPO-deficient BT3 E. coli (ΔPPO) transformed with CyPPO19 variant R89A+F360V (Thermosynechococcus elongatus PKUAC-SCTE542, SEQ ID NO: 1)", "assay": "Herbicide tolerance test in E. coli, CyPPO19 R89A+F360V", "assay_type": "cell-based", "settings": "LB agar, 0 to 2,000 μM herbicide, 37° C., 16-20 hours", "description": "(§1) To enhance the PPO-inhibiting herbicide resistance of CyPPO19 and CyPPO18, PPO variant genes of the above example 2 were constructed. They were transformed to BT3 (ΔPPO) strain which is deficient of PPO activity and cultured in LB media with PPO-inhibiting herbicide, thereby examining whether growth of transformed BT3 was not inhibited.\n(§2) BT3 competent cells were transformed with the pET303-CyPPO19 (wild type), pET303-CyPPO18 (wild type) plasmids, and those with a mutation(s) constructed (refer to example 2) via heat shock method, and were cultured in LB agar media containing ampicillin.\n(§3) Single colony transformed with each CyPPO gene was cultured in 3 mL of LB broth (LPSS) containing ampicillin for more than 12 hours, and then was subcultured in LB broth until absorbance (OD600) reached 0.5 to 1. Then, it was diluted with LB broth to OD600=0.5. Again, the diluted solution was serially diluted 4 times by a factor of one tenth. […]\n(§4) Then, 10 μL of each diluted solution of E. coli was dropped on the plate and cultured at 37° C. under dark for 16-20 hours. PPO-inhibiting herbicide resistance was evaluated with the extent of E. coli growth containing each gene was observed.\n(§5) The extent of herbicide resistance was evaluated by the relative growth of variants to that of wild type, and listed in Tables 9 and 10 and FIGS. 3 to 32. […]"}, "[4]": {"target": "Thermosynechococcus elongatus PKUAC-SCTE542 protoporphyrinogen IX oxidase CyPPO19 (SEQ ID NO: 1) variant V305M (MBP fusion) (Thermosynechococcus sichuanensis, UniProt A0A7D6JSC1, V305M)", "sequence (A0A7D6JSC1 entry or part of it V305M)": "as the sequence (A0A7D6JSC1 entry or part of it V305L) above, with L305M counted along it", "assay": "PPO enzyme inhibition assay (IC50 for herbicides), CyPPO19 V305M fused to MBP", "assay_type": "biochemical"}, "[5]": {"test_system": "PPO-deficient BT3 E. coli (ΔPPO) transformed with CyPPO18 variant V165C+A167L+F360I (Thermosynechococcus vulcanus NIES-2134, SEQ ID NO: 3)", "assay": "Herbicide tolerance test in E. coli, CyPPO18 V165C+A167L+F360I", "assay_type": "cell-based", "set-up": "key to the marks not given beside the values", "settings": "LB agar, 0 to 2,000 μM herbicide, 37° C., 16-20 hours", "description": "as §1, §2, §3, §4, §5"}, "[6]": {"target": "Thermosynechococcus vulcanus NIES-2134 protoporphyrinogen IX oxidase CyPPO18 (SEQ ID NO: 3) variant V305M (MBP fusion) (Thermosynechococcus vestitus, UniProt Q8DLV2, V305M)", "sequence (Q8DLV2 entry or part of it V305M)": "as the sequence (Q8DLV2 entry or part of it R89A) above, with A89R, V305M counted along it", "assay": "PPO enzyme inhibition assay (IC50 for herbicides), CyPPO18 V305M fused to MBP", "assay_type": "biochemical", "settings": "50 μM protoporphyrinogen IX, pH 7.5, room temperature, 30 min"}, "[7]": {"target": "Thermosynechococcus vulcanus NIES-2134 protoporphyrinogen IX oxidase CyPPO18, wild type, SEQ ID NO: 3 (MBP fusion) (Thermosynechococcus vestitus, UniProt Q8DLV2)", "sequence (Q8DLV2 entry or part of it)": "as the sequence (Q8DLV2 entry or part of it R89A) above, with A89R counted along it", "assay_type": "biochemical", "settings": "CyPPO18 WT; 50 μM protoporphyrinogen IX, pH 7.5, room temperature, 30 min"}, "[8]": {"test_system": "PPO-deficient BT3 E. coli (ΔPPO) transformed with CyPPO18 variant R89A+V165C+F360I (Thermosynechococcus vulcanus NIES-2134, SEQ ID NO: 3)", "assay": "Herbicide tolerance test in E. coli, CyPPO18 R89A+V165C+F360I", "assay_type": "cell-based", "set-up": "key to the marks not given beside the values", "settings": "LB agar, 0 to 2,000 μM herbicide, 37° C., 16-20 hours", "description": "as §1, §2, §3, §4, §5"}, "[9]": {"target": "T1, Thermosynechococcus elongatus PKUAC-SCTE542 protoporphyrinogen IX oxidase CyPPO19, wild type, SEQ ID NO: 1 (MBP fusion) (Thermosynechococcus sichuanensis, UniProt A0A7D6JSC1)", "T1 sequence (A0A7D6JSC1 1-467)": "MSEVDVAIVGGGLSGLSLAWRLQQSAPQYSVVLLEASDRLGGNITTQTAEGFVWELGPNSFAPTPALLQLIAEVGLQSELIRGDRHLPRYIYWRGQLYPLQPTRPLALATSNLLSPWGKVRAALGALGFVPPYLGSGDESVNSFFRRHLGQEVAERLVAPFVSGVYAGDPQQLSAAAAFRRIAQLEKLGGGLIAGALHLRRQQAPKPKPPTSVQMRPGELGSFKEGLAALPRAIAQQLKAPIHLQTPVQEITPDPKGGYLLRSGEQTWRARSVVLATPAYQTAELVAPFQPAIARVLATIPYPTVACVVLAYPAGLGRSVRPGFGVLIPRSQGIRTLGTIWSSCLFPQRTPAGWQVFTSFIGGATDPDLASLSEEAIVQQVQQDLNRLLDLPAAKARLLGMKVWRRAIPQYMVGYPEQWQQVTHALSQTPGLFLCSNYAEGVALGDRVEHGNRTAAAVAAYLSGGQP", "assay": "PPO enzyme inhibition assay (IC50 for herbicides), CyPPO19 wild type fused to MBP", "assay_type": "biochemical"}, "[10]": {"target": "Thermosynechococcus elongatus PKUAC-SCTE542 protoporphyrinogen IX oxidase CyPPO19 (SEQ ID NO: 1) variant A167I (MBP fusion) (Thermosynechococcus sichuanensis, UniProt A0A7D6JSC1, A167I)", "sequence (A0A7D6JSC1 entry or part of it A167I)": "as the sequence (A0A7D6JSC1 entry or part of it V305L) above, with A167I, L305V counted along it", "assay": "biochemical", "settings": "50 μM protoporphyrinogen IX, pH 7.5, room temperature, 30 min, 10,000 means equivalent to or higher"}, "[11]": {"test_system": "PPO-deficient BT3 E. coli (ΔPPO) transformed with CyPPO18 variant L327T+F360M (Thermosynechococcus vulcanus NIES-2134, SEQ ID NO: 3)", "assay": "Herbicide tolerance test in E. coli, CyPPO18 L327T+F360M", "assay_type": "cell-based", "set-up": "key to the marks not given beside the values", "settings": "LB agar, 0 to 2,000 μM herbicide, 37° C., 16-20 hours", "description": "as §1, §2, §3, §4, §5"}, "[12]": {"test_system": "PPO-deficient BT3 E. coli (ΔPPO) transformed with CyPPO18 variant R89A+F360V (Thermosynechococcus vulcanus NIES-2134, SEQ ID NO: 3)", "assay_type": "cell-based", "settings": "LB agar, 0 to 2,000 μM herbicide, 37° C., 16-20 hours", "description": "as §1, §2, §3, §4, §5"}}, "note": "Like-named read-outs stand apart in the source and are kept apart here."}
{"smiles": "Cc1nn(-c2cc(CC(Cl)C(=O)O)c(Cl)cc2F)c(=O)n1C(F)F", "note": "(stereo not drawn) [Carfentrazone]", "values": [{"measurement": "IC50", "setting": "[1]", "value": 872, "unit": "nM"}, {"measurement": "IC50", "setting": "[2]; CyPPO19 V305L, 50 μM protoporphyrinogen IX, pH 7.5, room temperature, 30 min", "value": 1330, "unit": "nM"}, {"measurement": "tolerance level (relative growth of variant to wild type)", "setting": "[3]", "value": "+"}, {"measurement": "IC50", "setting": "[4]; CyPPO19 V305M, 50 μM protoporphyrinogen IX, pH 7.5, room temperature, 30 min", "value": 910, "unit": "nM"}, {"measurement": "tolerance level (relative growth of variant to wild type)", "setting": "[5]", "value": "++"}, {"measurement": "IC50", "setting": "[6]", "value": 1610, "unit": "nM"}, {"measurement": "IC50", "setting": "[7]", "value": 566, "unit": "nM"}, {"measurement": "tolerance level (relative growth of variant to wild type)", "setting": "[8]", "value": "++"}, {"measurement": "IC50", "setting": "[9]; CyPPO19 WT, 50 μM protoporphyrinogen IX, pH 7.5, room temperature, 30 min", "value": 763, "unit": "nM"}, {"measurement": "IC50", "setting": "[10]", "value": "≥ 10000", "unit": "nM"}, {"measurement": "tolerance level (relative growth of variant to wild type)", "setting": "[11]", "value": "++"}, {"measurement": "tolerance level (relative growth of variant to wild type)", "setting": "[12]", "value": "++"}]}
{"smiles": "CCOc1cc(Oc2ccc(C(F)(F)F)cc2Cl)ccc1[N+](=O)[O-]", "note": "[Oxyfluorfen]", "values": [{"measurement": "IC50", "setting": "[1]", "value": 491, "unit": "nM"}, {"measurement": "IC50", "setting": "[2]", "value": 793, "unit": "nM"}, {"measurement": "tolerance level (relative growth of variant to wild type)", "setting": "[3]", "value": "+"}, {"measurement": "IC50", "setting": "[4]", "value": 732, "unit": "nM"}, {"measurement": "tolerance level (relative growth of variant to wild type)", "setting": "[5]", "value": "++"}, {"measurement": "IC50", "setting": "[6]", "value": 355, "unit": "nM"}, {"measurement": "IC50", "setting": "[7]", "value": 103, "unit": "nM"}, {"measurement": "tolerance level (relative growth of variant to wild type)", "setting": "[8]", "value": "++"}, {"measurement": "IC50", "setting": "[9]", "value": 570, "unit": "nM"}, {"measurement": "IC50", "setting": "[10]; read-out: IC50", "value": 1330, "unit": "nM"}, {"measurement": "tolerance level (relative growth of variant to wild type)", "setting": "[11]", "value": "++"}, {"measurement": "tolerance level (relative growth of variant to wild type)", "setting": "[12]", "value": "+"}]}
